Measured values as given in patent EP1079849B1, “USE OF HMG PROTEINS FOR THE PREPARATION OF MEDICAMENTS HAVING CYTOTOXIC ACTIVITY” (Istituto Di Ricerche " Giorgio Sisini", priority 1998, dated 2002).

Tested on: tumors
Assay: DMBA-induced tumor growth in rats
Details: female rats with DMBA-induced tumors; control = saline solution; result in words

Peptide 1-19: peptide 1-19 of HMG-I, commercially available from Santa Cruz Biotechnology, Santa Cruz, CA, USA (MSESSSKSSQPLASKQEKD; UniProt P17096 1-19, looked up, fragment)
tumor growth in comparison to the control: clearly slow down the tumor growth
